Drawing on US7888380B2, “1,2,4-Triazolylaminoaryl (heteroaryl) sulfonamide derivatives” (Janssen Pharmaceutica, N.V., priority 2004, dated 2011), this text covers IC50 for 7 compounds.

In experiment [1] the target is T1, CDK1:Cyclin-B (Homo sapiens, UniProt P06493).
T1 construct: purchased New England Biolabs, Beverly, Mass; 6020; host or cells: insect cells
The experiment is described as follows: CDK1 Screening Assay (33P-ATP FlashPlate). Particulars: 10 μM ATP; >10 or >100 = less than 50% inhibition at highest concentration tested. In kind it is biochemical. The method, then: A kinase reaction mixture was prepared containing 50 mM Tris-HCl pH=8, 10 mM MgCl2, 0.1 mM Na3PO4, 1 mM DTT, 10 μM ATP, 0.025 μM biotinylated histone-H1 peptide substrate and 0.2 μCuries per well ^33P-γ-ATP (2000-3000 Ci/mmol). 70 μL of the kinase reaction mixture was dispensed into each well of a streptavidin coated FlashPlate™ (Cat. # SMP103, NEN, Boston, Mass.). Then 1 μL of test compound stock in 100% DMSO was added to the wells resulting in a final concentration of 1% DMSO in the reaction with a 100 μl final reaction volume.
Next, CDK1:Cyclin-B protein was diluted in 50 mM Tris-HCl pH=8.0, 0.1% BSA at a concentration of 1 ng per μL and 30 μL (30 ng enzyme per test well) was added to each well to initiate the reaction. The reaction was incubated for one hour at 30° C. At the end of the 1 h incubation, the reaction was terminated by aspirating the mixture from the plate and washing the wells twice with PBS containing 100 mM EDTA. The histone-H1 biotinylated peptide substrate became immobilized on the Flashplate™ and the incorporation of ^33P-γ-ATP was measured by reading the plate on a scintillation counter. Inhibition of the enzymatic activity of CDK1 was measured by observing a reduced amount of ^33P-γ-ATP incorporated into the immobilized peptide.
(§1) VEGF-R (vascular endothelial growth factor receptor-2) is a fusion protein containing a polyhistidine tag at the N-terminus followed by amino acids 786-1343 of the rat VEGF-R2 kinase domain (GenBank Accession #U93306). CDK1 (cyclin dependent kinase 1) was isolated from insect cells expressing both the human CDK1 catalytic subunit and its positive regulatory subunit cyclin B (New England Biolabs, Beverly, Mass., Cat. # 6020). CDK2 in complex with cyclin A is commercially available (Upstate Biotech, Lake Placid, N.Y.). The HER2 (human epidermal growth factor receptor-2) construct contains a polyhistidine tag at the N-terminus followed by 24 additional amino acids and begins at amino acid 676 followed by the remainder of the HER2 cytoplasmic domain.

The target in experiment [2] is T2, VEGF-R2 kinase (Rattus norvegicus, UniProt O08775).
T2 construct: 6xHis (polyhistidine) (N)
Kind of experiment: VEGF-R2 Kinase Screening Assay. It counts as biochemical. Particulars: 10 μM ATP; rat VEGF-R2 kinase domain; read-out: IC50 (μM) VEGFR. As for the experimental part: A kinase reaction mixture was prepared containing 50 mM Tris-HCl pH=8, 10 mM MgCl2, 0.1 mM Na3PO4, 1 mM DTT, 10 μM ATP, 0.025 μM biotinylated peptide substrate and 0.8 μCuries per well ^33P-γ-ATP (2000-3000 Ci/mmol). 70 μL of the kinase reaction mixture was dispensed into each well of a streptavidin coated FlashPlate™ (Cat. # SMP103, NEN, Boston, Mass.). Then 1 μL of test compound stock in 100% DMSO was added to the wells resulting in a final concentration of 1% DMSO in the reaction with a 100 μL final reaction volume. Next, soluble rat tyrosine kinase containing an N-terminal 6×HIS tag was diluted in 50 mM Tris-HCl pH=8.0, 0.1% BSA at a concentration of 5 ng per μL and 30 μL (150 ng enzyme per test well) was added to each well to initiate the reaction. The reaction was incubated for one hour at 30° C. At the end of the 1 h incubation, the reaction was terminated by aspirating the reaction mixture from the plate and washing the wells twice with PBS containing 100 mM EDTA. The PLC1 biotinylated peptide substrate became immobilized on the Flashplate™ and the incorporation of ^33P-γ-ATP was measured by reading the plate on a scintillation counter. Inhibition of the enzymatic activity of the VEGF-R2 kinase was measured by observing a reduced amount of ^33P-γ-ATP incorporated into the immobilized peptide.
as §1

Experiment [3] addresses T3, HER2 (Homo sapiens, UniProt P04626).
T3 construct: polyhistidine (N)
The experiment is described as follows: HER2 Kinase Screening Assay. It counts as biochemical. Particulars: 10 μM ATP; >10 or >100 = less than 50% inhibition at highest concentration tested. As for the experimental part: The HER2 kinase assay was carried out as described above for the VEGF-R kinase assay except that the enzyme was replaced with a human epidermal growth factor receptor-2 (HER2) construct contains a polyhistidine tag at the N-terminus followed by 24 additional amino acids and begins at amino acid 676 (Accession #M11730) followed by the remainder of the HER2 cytoplasmic domain.
as §1

Experiment [4] concerns HeLa cervical adenocarcinoma. Kind of experiment: Inhibition of cell proliferation (14C-thymidine incorporation), HeLa. It counts as cell-based. Particulars: Homo sapiens. The method, then:
The ability of a test compound to inhibit the proliferation of cell growth was determined by measuring incorporation of ^14C-labelled thymidine into newly synthesized DNA within the cells. This method was used on cell lines derived from carcinomas originating from several tissues such as HeLa cervical adenocarcinoma (American Type Culture Collection (ATCC), Virginia, Cat. #CCL-2), A375 malignant melanoma (ATCC CRL-1619), and HCT-116 colon carcinoma (CCL-247). In this way the effect of a compound on cell growth of cells with many different phenotypes can be determined. Cells were trypsinized and counted and 3000-8000 cells were added to each well of a 96-well CytoStar tissue culture treated scintillating microplate (Amersham #RPNQ0160) in complete medium in a volume of 100 μl. Cells were incubated for 24 hours in complete medium at 37° C. in an atmosphere containing 5% CO2.
Next, 1 μl of test compound in 100% DMSO was added to the wells of the plate. DMSO only was added to control wells. Cells were incubated for 24 more hours in complete medium at 37° C. in an atmosphere containing 5% CO2. Methyl ^14C-thymidine 56 mCi/mmol (NEN #NEC568 or Amersham #CFA532) was diluted in complete medium and 0.2 uCi/well was added to each well of the CytoStar plate in a volume of 20 ul. The plate was incubated for 24 hours at 37° C. plus 5% CO2 in drug plus ^14C-thymidine. The contents of the plate were discarded into a ^14C radioactive waste container by inverting the plate and the plate was washed twice with 200 μl PBS.
200 μl of PBS was added to each well. The top of the plate was sealed with a transparent plate sealer and a white plate backing sealer (Packard #6005199) was applied to the bottom of the plate. The degree of methyl ^14C-thymidine incorporation was quantified on a Packard Top Count.

Bounds are passed on as bounds.

T3 sequence (P04626 676-1255 limits assumed): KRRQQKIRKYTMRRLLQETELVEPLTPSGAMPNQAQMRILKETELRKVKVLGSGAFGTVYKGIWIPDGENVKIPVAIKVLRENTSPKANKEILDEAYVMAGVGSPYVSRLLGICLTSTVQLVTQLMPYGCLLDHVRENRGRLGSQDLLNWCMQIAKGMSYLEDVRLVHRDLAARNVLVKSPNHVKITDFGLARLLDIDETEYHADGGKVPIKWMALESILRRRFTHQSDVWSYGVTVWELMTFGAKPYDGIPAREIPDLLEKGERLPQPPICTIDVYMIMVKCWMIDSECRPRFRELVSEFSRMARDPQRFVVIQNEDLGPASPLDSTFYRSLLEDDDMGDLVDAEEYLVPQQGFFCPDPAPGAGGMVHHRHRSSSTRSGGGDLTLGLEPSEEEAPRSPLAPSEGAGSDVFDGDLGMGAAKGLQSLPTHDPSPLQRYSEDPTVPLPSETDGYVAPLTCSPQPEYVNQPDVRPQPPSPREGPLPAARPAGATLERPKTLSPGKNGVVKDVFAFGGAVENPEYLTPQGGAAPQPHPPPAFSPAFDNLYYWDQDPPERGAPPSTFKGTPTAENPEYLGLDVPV
T1 sequence (P06493 whole entry): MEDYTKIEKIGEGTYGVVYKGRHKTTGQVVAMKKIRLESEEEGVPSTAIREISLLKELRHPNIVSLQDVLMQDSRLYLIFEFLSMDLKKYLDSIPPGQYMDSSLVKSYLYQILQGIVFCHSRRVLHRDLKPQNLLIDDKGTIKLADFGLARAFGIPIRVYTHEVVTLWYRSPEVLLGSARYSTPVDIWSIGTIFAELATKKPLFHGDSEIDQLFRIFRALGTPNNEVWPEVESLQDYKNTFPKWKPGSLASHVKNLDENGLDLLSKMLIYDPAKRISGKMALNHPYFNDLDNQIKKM
T1 sequence (P14635 whole entry partner): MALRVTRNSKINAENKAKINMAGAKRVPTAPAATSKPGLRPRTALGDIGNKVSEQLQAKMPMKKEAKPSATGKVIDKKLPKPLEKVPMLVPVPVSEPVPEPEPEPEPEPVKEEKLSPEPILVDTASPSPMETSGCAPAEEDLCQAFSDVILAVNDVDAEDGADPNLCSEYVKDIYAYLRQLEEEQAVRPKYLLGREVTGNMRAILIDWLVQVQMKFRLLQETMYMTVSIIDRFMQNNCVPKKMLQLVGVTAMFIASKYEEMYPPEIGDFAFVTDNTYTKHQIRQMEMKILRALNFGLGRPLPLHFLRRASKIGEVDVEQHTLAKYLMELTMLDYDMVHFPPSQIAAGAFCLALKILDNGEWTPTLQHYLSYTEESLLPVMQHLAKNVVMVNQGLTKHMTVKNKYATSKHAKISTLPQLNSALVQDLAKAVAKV
T2 sequence (O08775 786-1343): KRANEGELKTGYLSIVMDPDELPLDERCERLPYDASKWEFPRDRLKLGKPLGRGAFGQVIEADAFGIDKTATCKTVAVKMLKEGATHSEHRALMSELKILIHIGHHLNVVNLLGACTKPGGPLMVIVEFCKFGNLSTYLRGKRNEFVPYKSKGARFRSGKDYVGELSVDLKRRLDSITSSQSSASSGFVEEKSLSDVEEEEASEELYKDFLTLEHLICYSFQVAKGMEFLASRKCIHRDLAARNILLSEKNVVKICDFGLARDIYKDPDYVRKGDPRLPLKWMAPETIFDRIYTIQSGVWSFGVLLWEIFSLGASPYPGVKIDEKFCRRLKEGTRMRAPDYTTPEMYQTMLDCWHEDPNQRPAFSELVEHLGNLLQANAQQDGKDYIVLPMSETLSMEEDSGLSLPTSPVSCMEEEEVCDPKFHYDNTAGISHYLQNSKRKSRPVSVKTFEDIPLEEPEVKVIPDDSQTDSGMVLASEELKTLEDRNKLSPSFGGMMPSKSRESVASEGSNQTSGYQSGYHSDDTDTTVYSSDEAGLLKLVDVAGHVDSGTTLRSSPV

Consider `CCCC(=O)NS(=O)(=O)c1ccc(Nc2nc(N)n(C(=O)c3c(F)cccc3F)n2)cc1` [Compound 19, 4-[5-amino-1-(2,6-difluoro-benzoyl)-1H-[1,2,4]triazol-3-ylamino]-N-butyryl-benzenesulfonamide], for which the IC50 came out at 0.28 µM in experiment [1], 0.77 µM in experiment [2], 5 µM in experiment [3] and 6.89 µM in experiment [4].
The matching figures for `CCCCC(=O)NS(=O)(=O)c1ccc(Nc2nc(N)n(C(=O)c3c(F)cccc3F)n2)cc1` [Compound 18, 4-[5-amino-1-(2,6-difluoro-benzoyl)-1H-[1,2,4]triazol-3-ylamino]-N-pentanoyl-benzenesulfonamide]: 1.93 µM, 1.54 µM, 5 µM and 81.2 µM.
The matching figures for `Nc1nc(Nc2ccc(S(=O)(=O)NC(=O)[C@@H](N)CC(=O)O)cc2)nn1C(=O)c1c(F)cccc1F` [Compound 17, (S)-3-amino-4-{4-[5-amino-1-(2,6-difluoro-benzoyl)-1H-[1,2,4]triazol-3-ylamino]-benzenesulfonylamino}-4-oxo-butyric acid]: 0.98 µM, 1.56 µM, 20 µM and 58.3 µM.
Taken in the same sequence, the figures for `Nc1nc(Nc2ccc(S(=O)(=O)NC(=O)CCCC(=O)O)cc2)nn1C(=O)c1c(F)cccc1F` [Compound 11, 5-{4-[5-amino-1-(2,6-difluoro-benzoyl)-1H-[1,2,4]triazol-3-ylamino]-benzenesulfonylamino}-5-oxo-pentanoic acid] were 12.4 µM, 2.77 µM, greater than 100 µM and greater than 100 µM.
Regarding `Nc1nc(Nc2ccc(S(=O)(=O)NC(=O)[C@@H]3CCCN3)cc2)nn1C(=O)c1c(F)cccc1F` [Compound 16, 4-[5-amino-1-(2,6-difluoro-benzoyl)-1H-[1,2,4]triazol-3-ylamino]-N—((S)-pyrrolidine-2-carbonyl)-benzenesulfonamide], the IC50 was found to be 0.23 µM in experiment [1], 7.31 µM in experiment [2], 50 µM in experiment [3] and 10.2 µM in experiment [4].
Taken in the same sequence, the figures for `COCCOCC(=O)NS(=O)(=O)c1ccc(Nc2nc(N)n(C(=O)c3c(F)cccc3F)n2)cc1` [Compound 3, 4-[5-amino-1-(2,6-difluoro-benzoyl)-1H-[1,2,4]triazol-3-ylamino]-N-[2-(2-methoxy-ethoxy)-acetyl]-benzenesulfonamide] were 1.66 µM, 2.56 µM, no less than 10 µM and greater than 10 µM.
The matching figures for `COCCOCCOCC(=O)Nc1nc(Nc2ccc(S(N)(=O)=O)cc2)nn1C(=O)c1c(F)cccc1F` [Compound 10, N-[2-(2,6-difluoro-benzoyl)-5-(4-sulfamoyl-phenylamino)-2H-[1,2,4]triazol-3-yl]-2-[2-(2-methoxy-ethoxy)-ethoxy]-acetamide]: 2.55 µM, 1.76 µM, greater than 100 µM and greater than 100 µM.
